# According to patent publication US20250136931A1, “AN IMPROVED CELL CULTURE PROCESS FOR PRODUCTION OF PROTEIN” (KASHIV BIOSCIENCES, LLC, priority 2022, published 2025):
# How the values were obtained:
# [1] = system: host cells producing fusion protein (CTLA4Ig); test: Fed-batch bioreactor (Ambr250) cell culture for fusion protein (CTLA4Ig) production, control process spiked with Mito-TEMPO; type: cell-based
# Experimental: (§1) The cell bank vial was thawed in Shake flask 125 (SF125) into the seed media and cell counts were checked. The incubation was continued for 3-5 days during which cells reached the optimum cell density for subculture. The cells were subsequently expanded in Shake flask 500 (SF500) to generate sufficient inoculum for Ambr®250 bioreactors (250 mL).
# Production Fed batch bioreactor run was executed at Ambr®250 bioreactor using process parameters as mentioned below.
# The standard fed-batch culture process involved cell culturing for 12 days and was harvested depending upon the culture cell viability.
# (§2) When the control process was spiked with antioxidant Mito Tempo (total 25 nM added throughout the culturing period) 5 nM each on day 3, 5, 7, 9, 11. It was observed that the harvested protein titer was improved by 28% when analysed by Protein-A HPLC method. It was also observed that overall oxidation of the product was decreased by 18% when analysed by LC-MS method. The overall peak viable cell density of the culture was also found to have increased by 11%.
# [2] = system: host cells producing antibody; test: Fed-batch bioreactor (Ambr250) cell culture for antibody production, control process spiked with MitoTempo; type: cell-based; conditions: total 25 nM, 5 nM each on day 3, 5, 7, 9, 11
# Experimental: as §1, with “is” for “was”, “are” for “were”
# Production Fed batch bioreactor run is executed at Ambr®250 bioreactor using process parameters as mentioned below.
# The standard fed-batch culture process involved cell culturing for 12 days and it is harvested depending upon the culture cell viability.
# as §2, with “is” for “was”, “MitoTempo” for “Mito Tempo”, “improved” for “improved by 28%”, “decreased” for “decreased by 18%”, “increased.” for “increased by 11%.”
# [3] = CTLA4Ig culture, total 25 nM, 5 nM each on day 3, 5, 7, 9, 11
# [4] = CTLA4Ig fed-batch culture, 12 days, 5 nM each on Day 3, 5, 7, 9, 11 (total 25 nM)
compound,measurement,setting,value
"CC1(C)CC(NC(=O)C[P+](c2ccccc2)(c2ccccc2)c2ccccc2)CC(C)(C)N1[O] [MitoTempo, Mito-TEMPO]",harvested protein titer improved (Protein-A HPLC) versus control process,[1]; [3],28%
same,overall oxidation of the product decreased (LC-MS) versus control process,[1]; [3],18%
same,overall peak viable cell density increased versus control process,[1]; [3],11%
same,Harvest Oxidation (%) by LC-MS,[1]; [4],12.2%
same,Harvest Titer by Protein-A HPLC,[1]; [4],2.7 g/L
same,Peak cell density by Automated cell counter,[1]; [4],18.8 ×10^6 cells/mL
same,harvested protein titer (Protein-A HPLC) versus control process,[2],improved
same,overall oxidation of the product (LC-MS) versus control process,[2],decreased
same,overall peak viable cell density of the culture versus control process,[2],increased
